Assay results published in US11571398B1, “Compositions comprising ephedrine or an ephedrine salt and methods of making and using same” (Nexus Pharmaceuticals, Inc., priority 2019, dated 2023).

test: not given; details: glass vials extracted in 2% HNO3, 60° C., ~24 h; 2.5 ppb = lowest calibration concentration

Row | Compound | ICP-MS Results (ppb) Glass vials (2% HNO3) [ppb]
1 | Antimony | <2.5
2 | Arsenic | <2.5
3 | Cadmium | <2.5
4 | Cobalt | 2.6
5 | Copper | 3.7
6 | Lead | <2.5
7 | Lithium | 2.6

same assay, conditions: pH 3.4

Row | Compound | ICP-MS Results (ppb) Stoppers (Reflux pH 3.4) [ppb]
8 | Antimony | <2.5
9 | Cobalt | <2.5
10 | Copper | <2.5
11 | Lithium | <2.5

same assay, conditions: stoppers extracted in 2% HNO3, 60° C., ~24 h; 2.5 ppb = lowest calibration concentration

Row | Compound | ICP-MS Results (ppb) Stoppers (2% HNO3) [ppb]
12 | Arsenic | <2.5
13 | Cadmium | <2.5
14 | Lead | <2.5

same assay, conditions: stoppers, refluxed aqueous solution pH 3.4; 2.5 ppb = lowest calibration concentration

Row | Compound | ICP-MS Results (ppb) Stoppers (Reflux pH 3.4) [ppb]
15 | Arsenic | <2.5
16 | Cadmium | <2.5
17 | Lead | <2.5

test: HPLC-UV-CAD (QTOF LC-MS) extractables of stoppers: pH 9.4 extract; type: physicochemical; details: stopper extract, water pH 9.4, reflux 20 hours; relative quantitation against standard (12-HDA, Irgacure 184 or Oleamide); average of duplicate injections

Row | Compound | Est. Conc. of extractable (possible identification), HPLC-UV-CAD [µg/mL]
18 | O=S(O)S(=O)O [Dithionous acid] | 3.52
19 | CCCC(=O)C(O)c1ccccc1 (stereo not shown) [Lot 1-Hydroxy-1-phenyl-2-pentanone] | 0.10
20 | OCCOCCOCCO [Triethylene glycol] | <0.5

test: HPLC-UV-CAD (QTOF LC-MS) extractables of stoppers: 50/50 IPA/Water extract; type: physicochemical; details: stopper extract, reflux 12 hours, relative quantitation against standard (12-HDA, Irgacure 184 or Oleamide), average of duplicate injections

Row | Compound | Est. Conc. of extractable (possible identification), HPLC-UV-CAD [µg/mL]
21 | C1COCCOCCSSCCOCCO1 | <0.5
22 | Cc1cc(C(C)(C)C)cc(S(=O)(=O)O)c1 [5-(tert-Butyl)-3-toluenesulfonic acid] | 0.25
23 | CCCCOCCOCCOC(C)=O [Butyldiglycol acetate] | <0.5
24 | CCCCCCCCCCCCOS(C)(=O)=O [Dodecyl methanesulfonate] | 0.65
25 | CCCCCCCCCCCC(=O)NCCC[N+](C)(C)CC(=O)[O-] [Lauramidopropyl betaine] | <0.5
26 | CCCCCCCCCCCC(=O)O [Lauric acid] | <0.5
27 | CCCC(=O)C(O)c1ccccc1 (stereo not shown) [Lot 1-Hydroxy-1-phenyl-2-pentanone] | 30.47
28 | CCCCCCCCCCCCCC(=O)O [Myristic acid] | <0.5
29 | CCCCCCCC/C=C\CCCCCCCC(N)=O [Oleamide] | <0.5
30 | CCCCCCCCCCCCCCCC(N)=O [Palmitamide] | <0.5
31 | CCCCCCCCCCCCCCCC(=O)O [Palmitic acid] | 10.74
32 | CCCCCC[C@@H](O)C/C=C\CCCCCCCC(=O)O [Ricinoleic acid] | <0.5
33 | CCCCCCCCCCCCCCCCCC(N)=O [Stearamide] | <0.5
34 | OCCOCCOCCO [Triethylene glycol] | <0.5
35 | Laureth-3 | <0.5
36 | Laureth-4 | <0.5
37 | Laureth-9 | <0.5
